Activity calls are given as the source filed them. The calls are words filed in the database; no cut-off is given here.
Assays:
[1] = Antiproliferative activity against human SW620 cells after 72 hrs by MTT assay in presence of leucovorin; type: functional, cell-based; conditions: SW-620, 72 h
KB [2] = experiment: Antiproliferative activity against human KB cells after 72 hrs by MTT assay in presence of leucovorin; type: functional, cell-based
A549 = experiment: Antiproliferative activity against human A549 cells after 72 hrs by MTT assay in presence of leucovorin; type: functional, cell-based; conditions: A549, 72 h
[3] = molecular target: Bifunctional purine biosynthesis protein ATIC (Homo sapiens) (UniProt P31939); experiment: Inhibition of AICARFTase in human SW620 cells assessed as growth inhibition at 0.001 to 10 uM coincubated with AICA; type: cell-based; conditions: SW-620
Sequence of Bifunctional purine biosynthesis protein ATIC (Homo sapiens) (P31939 whole entry, looked up): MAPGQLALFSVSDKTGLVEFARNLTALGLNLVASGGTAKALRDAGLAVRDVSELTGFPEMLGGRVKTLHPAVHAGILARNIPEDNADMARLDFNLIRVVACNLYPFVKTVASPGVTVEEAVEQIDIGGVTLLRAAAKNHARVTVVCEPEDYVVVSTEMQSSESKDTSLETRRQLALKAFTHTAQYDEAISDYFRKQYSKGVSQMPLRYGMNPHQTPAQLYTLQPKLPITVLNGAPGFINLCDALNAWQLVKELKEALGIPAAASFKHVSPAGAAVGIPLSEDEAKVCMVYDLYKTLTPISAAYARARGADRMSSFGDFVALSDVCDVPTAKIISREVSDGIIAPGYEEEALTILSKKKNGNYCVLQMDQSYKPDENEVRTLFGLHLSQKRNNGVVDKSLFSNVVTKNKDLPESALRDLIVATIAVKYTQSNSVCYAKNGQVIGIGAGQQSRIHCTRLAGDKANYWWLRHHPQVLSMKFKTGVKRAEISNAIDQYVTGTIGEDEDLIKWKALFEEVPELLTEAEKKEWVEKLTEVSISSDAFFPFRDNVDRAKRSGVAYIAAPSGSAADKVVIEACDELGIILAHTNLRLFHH

[4] = molecular target: GAR transformylase/AICAR transformylase (Homo sapiens) (UniProt P31939+P22102); experiment: Inhibition of GARFTase/AICARFTase in human SW620 cells assessed as growth inhibition at 0.001 to 10 uM coincubated with adenosine; type: cell-based; conditions: SW-620
Sequence of GAR transformylase/AICAR transformylase (Homo sapiens) (P22102 whole entry, looked up): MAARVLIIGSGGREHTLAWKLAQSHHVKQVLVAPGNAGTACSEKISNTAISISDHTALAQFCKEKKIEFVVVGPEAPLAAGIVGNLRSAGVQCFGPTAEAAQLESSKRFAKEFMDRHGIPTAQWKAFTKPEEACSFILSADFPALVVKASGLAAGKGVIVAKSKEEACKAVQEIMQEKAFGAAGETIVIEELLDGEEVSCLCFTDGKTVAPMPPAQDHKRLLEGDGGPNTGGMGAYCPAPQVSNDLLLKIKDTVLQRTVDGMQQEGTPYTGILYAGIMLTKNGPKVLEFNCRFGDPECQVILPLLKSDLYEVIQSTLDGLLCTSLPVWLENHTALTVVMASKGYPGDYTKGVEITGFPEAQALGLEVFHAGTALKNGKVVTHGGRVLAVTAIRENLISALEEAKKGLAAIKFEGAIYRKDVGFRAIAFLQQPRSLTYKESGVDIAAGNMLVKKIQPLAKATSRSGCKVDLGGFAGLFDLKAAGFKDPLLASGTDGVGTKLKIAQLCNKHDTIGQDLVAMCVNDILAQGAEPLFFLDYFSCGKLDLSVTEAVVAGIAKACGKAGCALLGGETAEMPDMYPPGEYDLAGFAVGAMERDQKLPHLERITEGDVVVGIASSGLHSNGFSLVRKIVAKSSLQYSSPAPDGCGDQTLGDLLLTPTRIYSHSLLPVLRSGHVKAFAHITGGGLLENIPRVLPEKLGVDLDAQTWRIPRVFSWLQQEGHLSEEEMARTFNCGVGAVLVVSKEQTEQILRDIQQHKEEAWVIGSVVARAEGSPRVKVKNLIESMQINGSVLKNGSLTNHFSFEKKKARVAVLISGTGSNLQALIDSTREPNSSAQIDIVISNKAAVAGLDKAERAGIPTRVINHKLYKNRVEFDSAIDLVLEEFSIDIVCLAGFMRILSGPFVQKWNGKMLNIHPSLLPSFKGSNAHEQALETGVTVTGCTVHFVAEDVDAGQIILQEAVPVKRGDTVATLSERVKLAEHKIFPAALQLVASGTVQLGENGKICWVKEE
Sequence of GAR transformylase/AICAR transformylase (Homo sapiens) (P31939 whole entry, looked up): as the sequence (P31939 whole entry, looked up) above

[5] = molecular target: Thymidylate synthase/GAR transformylase/AICAR transformylase (Homo sapiens) (UniProt P04818+P31939+P22102); experiment: Inhibition of thymidylate synthase/GARFTase/AICARFTase in human SW620 cells assessed as growth inhibition at 0.001 to 10 uM coincubated with thymidine and adenosine; type: cell-based; conditions: SW-620
Sequence of Thymidylate synthase/GAR transformylase/AICAR transformylase (Homo sapiens) (P04818 whole entry, looked up): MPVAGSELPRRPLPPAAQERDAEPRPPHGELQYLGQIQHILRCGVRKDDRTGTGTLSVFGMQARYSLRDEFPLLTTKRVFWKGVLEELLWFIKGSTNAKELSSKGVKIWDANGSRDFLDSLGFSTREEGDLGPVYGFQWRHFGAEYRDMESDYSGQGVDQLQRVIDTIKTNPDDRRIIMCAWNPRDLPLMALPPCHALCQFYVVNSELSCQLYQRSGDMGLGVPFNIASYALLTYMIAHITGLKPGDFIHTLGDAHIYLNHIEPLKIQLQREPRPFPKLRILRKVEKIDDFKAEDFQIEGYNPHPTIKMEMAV
Sequence of Thymidylate synthase/GAR transformylase/AICAR transformylase (Homo sapiens) (P22102 whole entry, looked up): as the sequence (P22102 whole entry, looked up) above
Sequence of Thymidylate synthase/GAR transformylase/AICAR transformylase (Homo sapiens) (P31939 whole entry, looked up): as the sequence (P31939 whole entry, looked up) above

SW-620 [6] = experiment: Induction of apoptosis in human SW620 cells assessed as necrotic cells at 10 uM after 48 hrs by annexin V-FITC/PI staining based flow cytometry in presence of leucovorin (reference value: 9 %); type: functional
[7] = Cell cycle arrest in human SW620 cells assessed as accumulation at G2 phase at 10 uM after 96 hrs by propidium iodide staining based flow cytometry in presence of leucovorin (reference value: 10.3 %); type: functional; conditions: SW-620
SW-620 [8] = experiment: Induction of apoptosis in human SW620 cells assessed as viable cells at 10 uM after 48 hrs by annexin V-FITC/PI staining based flow cytometry in presence of leucovorin (reference value: 84.0 %); type: functional; conditions: SW-620, 48 h, read-out: Activity
[9] = Cell cycle arrest in human SW620 cells assessed as accumulation at G1 phase at 10 uM after 96 hrs by propidium iodide staining based flow cytometry in presence of leucovorin (reference value: 62.4 %); type: functional; conditions: SW-620
SW-620 [10] = experiment: Induction of apoptosis in human SW620 cells assessed as late apoptotic cells at 10 uM after 48 hrs by annexin V-FITC/PI staining based flow cytometry in presence of leucovorin (reference value: 6.4 %); type: functional
[11] = molecular target: Thymidylate synthase (Homo sapiens) (UniProt P04818); experiment: Inhibition of thymidylate synthase in human SW620 cells assessed as growth inhibition at 0.001 to 10 uM coincubated with excessive thymidine; type: cell-based; conditions: SW-620
Sequence of Thymidylate synthase (Homo sapiens) (P04818 2-313 limits assumed): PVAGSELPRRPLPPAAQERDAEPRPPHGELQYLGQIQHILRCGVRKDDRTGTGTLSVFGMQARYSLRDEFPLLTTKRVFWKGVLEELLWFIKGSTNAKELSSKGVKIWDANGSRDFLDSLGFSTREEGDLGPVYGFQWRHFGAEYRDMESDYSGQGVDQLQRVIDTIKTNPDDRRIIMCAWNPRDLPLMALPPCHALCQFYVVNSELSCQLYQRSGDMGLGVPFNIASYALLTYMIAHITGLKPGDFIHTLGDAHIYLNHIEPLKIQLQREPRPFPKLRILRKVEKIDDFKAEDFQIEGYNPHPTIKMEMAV

[12] = molecular target: Thymidylate synthase/AICAR transformylase (Homo sapiens) (UniProt P04818+P31939); experiment: Inhibition of thymidylate synthase/AICARFTase in human SW620 cells assessed as growth inhibition at 0.001 to 10 uM coincubated with AICA and […]; type: cell-based; conditions: SW-620
Sequence of Thymidylate synthase/AICAR transformylase (Homo sapiens) (P04818 whole entry, looked up): as the sequence (P04818 whole entry, looked up) above
Sequence of Thymidylate synthase/AICAR transformylase (Homo sapiens) (P31939 whole entry, looked up): as the sequence (P31939 whole entry, looked up) above

KB [13] = experiment: Inhibition of colony formation in human KB cells at 1 uM measured after 10 to 14 days by methylene blue staining based assay presence of leucovorin; type: functional
[14] = Cell cycle arrest in human SW620 cells assessed as accumulation at S phase at 10 uM after 96 hrs by propidium iodide staining based flow cytometry in presence of leucovorin (reference value: 27.3 %); type: functional; conditions: SW-620
SW-620 [15] = experiment: Induction of apoptosis in human SW620 cells assessed as early apoptotic cells at 10 uM after 48 hrs by annexin V-FITC/PI staining based flow cytometry in presence of leucovorin (reference value: 0.6 %); type: functional

SMILES	IC50 (KB [2])	IC50 (A549)	IC50 [1]	Activity [7]	Activity [9]	Activity [14]	other results
Nc1nc2[nH]c(CCSCCC(=O)NCc3ccccn3)cc2c(=O)[nH]1	8.93 µM	77.3 µM	11.9 µM				
CN(Cc1cnc2nc(N)nc(N)c2n1)c1ccc(C(=O)N[C@@H](CCC(=O)O)C(=O)O)cc1 [METHOTREXATE]		0.99 µM	0.013 µM				
Nc1nc2[nH]c(CCSCC(=O)NCc3cccnc3)cc2c(=O)[nH]1	37.5 µM	56.6 µM	25.3 µM				
Nc1nc2[nH]c(CCSCC(=O)NCc3ccncc3)cc2c(=O)[nH]1	14.1 µM	42.4 µM	22.7 µM				
Nc1nc2[nH]cc(CCc3ccc(C(=O)N[C@@H](CCC(=O)O)C(=O)O)cc3)c2c(=O)[nH]1 [PEMETREXED]		1.26 µM	0.08 µM	0%	45.8%	54.2%	
Nc1nc2[nH]c(CCSCCC(=O)NCc3ccncc3)cc2c(=O)[nH]1	45.6 µM	7.87 µM	24.8 µM				
Nc1nc2[nH]c(CCSCC(=O)NCc3ccccn3)cc2c(=O)[nH]1	28.4 µM	14.1 µM	36.1 µM				

Further lines, with some results ahead:

IC50 (KB [2])	IC50 (A549)	SMILES	IC50 [1]	Activity [7]	Activity [9]	Activity [14]	other results
0.324 µM	0.713 µM	Nc1nc2[nH]c(CCSCCC(=O)N[C@@H](CCC(=O)O)C(=O)O)cc2c(=O)[nH]1	0.387 µM	4.5%	56.3%	39.2%	growth inhibition (GI) [3]: inactive; growth inhibition (GI) [4]: inactive; growth inhibition (GI) [5]: inactive; Activity (SW-620 [6]): 41.6%; viability at 10 µM (SW-620 [8]): 22.1%; Activity (SW-620 [10]): 34.8%; growth inhibition (GI) [11]: inactive; growth inhibition (GI) [12]: inactive; inhibition at 1 µM (KB [13]): 80%; Activity (SW-620 [15]): 1.5%
0.648 µM	1.07 µM	Nc1nc2[nH]c(CCSCCC(=O)NCc3cccnc3)cc2c(=O)[nH]1	0.665 µM	8.6%	66.5%	24.9%	Activity (SW-620 [6]): 22%; viability at 10 µM (SW-620 [8]): 51.8%; Activity (SW-620 [10]): 25.1%; inhibition at 1 µM (KB [13]): 70%; Activity (SW-620 [15]): 1.1%
0.373 µM	0.668 µM	Nc1nc2[nH]c(CCSCC(=O)N[C@@H](CCC(=O)O)C(=O)O)cc2c(=O)[nH]1	0.442 µM				
